# Measured values taken from US20100311729A1, “Substituted imidazopyridazines and pyrrolopyrimidines as lipid kinase inhibitors” (priority 2007, published 2010).
# Tests used:
# PI3K alfa = biological target: T1, PI3K alfa (Homo sapiens, UniProt P42336); assay: PI3 kinase assay (Kinase-Glo luminescence), PI3K alfa; type: biochemical; settings: Enzymatic Data; read-out: PI3K alfa IC50 [umol]
# T1 construct: for the p110-a subunit (with a deletion of the first 20 amino acids); His tag (C); made in house; host or cells: baculovirus; Tn5 (Trichoplusia ni) or TiniPro insect cells
# T1 sequence (P42336 with tags, fused parts or gaps limits assumed): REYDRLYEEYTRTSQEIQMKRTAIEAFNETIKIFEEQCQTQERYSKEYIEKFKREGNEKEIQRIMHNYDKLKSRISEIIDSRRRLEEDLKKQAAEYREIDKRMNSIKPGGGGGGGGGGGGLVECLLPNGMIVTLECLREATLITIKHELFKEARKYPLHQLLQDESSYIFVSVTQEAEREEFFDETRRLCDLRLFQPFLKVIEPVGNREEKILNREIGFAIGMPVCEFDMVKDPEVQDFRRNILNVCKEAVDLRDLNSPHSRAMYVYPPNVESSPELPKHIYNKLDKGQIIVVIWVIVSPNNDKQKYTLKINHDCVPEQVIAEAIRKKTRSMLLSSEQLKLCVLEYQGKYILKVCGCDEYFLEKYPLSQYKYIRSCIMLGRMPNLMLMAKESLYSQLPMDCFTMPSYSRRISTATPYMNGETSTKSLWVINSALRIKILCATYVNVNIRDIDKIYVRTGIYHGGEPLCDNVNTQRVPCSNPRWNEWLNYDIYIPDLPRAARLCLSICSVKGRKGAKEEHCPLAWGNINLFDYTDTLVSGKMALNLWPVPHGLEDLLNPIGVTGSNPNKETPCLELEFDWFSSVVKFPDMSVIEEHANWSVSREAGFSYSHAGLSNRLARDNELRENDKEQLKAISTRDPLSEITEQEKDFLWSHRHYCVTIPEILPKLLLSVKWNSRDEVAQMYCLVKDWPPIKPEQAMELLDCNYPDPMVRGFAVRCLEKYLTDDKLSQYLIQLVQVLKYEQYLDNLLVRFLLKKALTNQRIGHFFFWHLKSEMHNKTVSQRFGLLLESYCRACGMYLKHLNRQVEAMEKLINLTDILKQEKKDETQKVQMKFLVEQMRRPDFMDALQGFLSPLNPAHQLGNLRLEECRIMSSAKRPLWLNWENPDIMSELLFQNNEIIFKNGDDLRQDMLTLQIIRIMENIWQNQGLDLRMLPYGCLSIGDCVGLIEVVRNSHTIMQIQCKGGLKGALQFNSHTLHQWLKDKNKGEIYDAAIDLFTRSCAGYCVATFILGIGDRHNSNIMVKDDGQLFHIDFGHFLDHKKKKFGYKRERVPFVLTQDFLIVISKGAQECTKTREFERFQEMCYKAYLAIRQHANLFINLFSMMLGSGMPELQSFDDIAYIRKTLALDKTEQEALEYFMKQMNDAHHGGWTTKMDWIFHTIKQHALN
# How it was run: (§1)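 Recombinant PI3K constructs (alfa 10 nM, delta 10 nM, gamma 150 nM) with 1 μM ATP and 10 μg/mL phosphatidylinositol in Tris pH 7.5, MgCl2, NaCl, CHAPS, DTT; 60 min (alfa, delta) or 120 min (gamma) at room temperature. ATP depletion read by Kinase-Glo luminescence; IC50 from 4-parameter logistic fit over 8 concentrations.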
# PI3K beta = biological target: T2, PI3K beta (Homo sapiens, UniProt P42338); assay: PI3 kinase assay (Kinase-Glo luminescence), PI3K beta; type: biochemical; settings: Enzymatic Data; read-out: PI3K beta IC50 [umol]
# T2 construct: for the full-length p110-b subunit are generated and fused by overlapping PCR; His tag (C); made in house; host or cells: baculovirus; Tn5 (Trichoplusia ni) or TiniPro insect cells
# T2 sequence (P42338 with tags, fused parts or gaps limits assumed): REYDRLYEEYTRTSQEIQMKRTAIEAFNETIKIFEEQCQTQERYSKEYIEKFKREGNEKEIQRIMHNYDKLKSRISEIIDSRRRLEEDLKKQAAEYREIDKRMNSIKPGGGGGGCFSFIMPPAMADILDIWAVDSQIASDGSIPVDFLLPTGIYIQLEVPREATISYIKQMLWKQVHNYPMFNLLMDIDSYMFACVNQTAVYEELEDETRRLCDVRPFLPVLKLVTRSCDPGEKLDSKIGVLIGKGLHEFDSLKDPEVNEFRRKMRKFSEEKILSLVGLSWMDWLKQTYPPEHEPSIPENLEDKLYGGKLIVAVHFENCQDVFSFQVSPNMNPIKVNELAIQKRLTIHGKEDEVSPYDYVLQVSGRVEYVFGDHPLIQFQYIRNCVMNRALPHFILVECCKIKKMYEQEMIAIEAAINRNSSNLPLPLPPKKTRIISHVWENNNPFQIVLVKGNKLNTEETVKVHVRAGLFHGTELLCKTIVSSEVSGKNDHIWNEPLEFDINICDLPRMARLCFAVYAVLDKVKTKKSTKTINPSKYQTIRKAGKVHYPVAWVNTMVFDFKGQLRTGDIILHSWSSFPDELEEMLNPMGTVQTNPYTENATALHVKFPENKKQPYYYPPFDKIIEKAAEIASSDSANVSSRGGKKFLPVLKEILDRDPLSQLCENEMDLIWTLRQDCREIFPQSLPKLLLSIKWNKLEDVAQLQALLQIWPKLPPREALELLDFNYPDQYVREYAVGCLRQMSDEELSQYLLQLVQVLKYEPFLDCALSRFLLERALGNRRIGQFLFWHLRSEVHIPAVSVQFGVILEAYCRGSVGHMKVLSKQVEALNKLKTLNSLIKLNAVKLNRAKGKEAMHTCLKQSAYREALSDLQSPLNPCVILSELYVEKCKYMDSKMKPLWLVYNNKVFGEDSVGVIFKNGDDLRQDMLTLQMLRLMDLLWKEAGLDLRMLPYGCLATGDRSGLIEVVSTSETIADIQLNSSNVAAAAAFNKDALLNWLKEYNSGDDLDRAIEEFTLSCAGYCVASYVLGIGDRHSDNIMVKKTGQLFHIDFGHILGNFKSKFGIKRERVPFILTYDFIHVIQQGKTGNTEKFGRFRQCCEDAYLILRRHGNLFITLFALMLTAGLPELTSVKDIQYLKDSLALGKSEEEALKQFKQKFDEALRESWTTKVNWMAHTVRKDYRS
# How it was run: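 PI3Kβ (25 nM, BV-949) with 10 μg/mL phosphatidylinositol in Tris pH 7.5/MgCl2/NaCl/CHAPS/DTT buffer; reaction started with 1 μM ATP, 60 min at room temperature. ATP depletion read by Kinase-Glo luminescence; 8-point dilutions, IC50 by four-parameter logistic fit.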
# PI3K delta = biological target: T3, PI3K delta (Homo sapiens, UniProt O00329); assay: PI3 kinase assay (Kinase-Glo luminescence), PI3K delta; type: biochemical; settings: Enzymatic Data; read-out: PI3K delta IC50 [umol]
# T3 construct: for the full-length p110-d subunit are generated and fused by overlapping PCR; His tag (C); made in house; host or cells: baculovirus; Tn5 (Trichoplusia ni) or TiniPro insect cells
# T3 sequence (O00329 with tags, fused parts or gaps limits assumed): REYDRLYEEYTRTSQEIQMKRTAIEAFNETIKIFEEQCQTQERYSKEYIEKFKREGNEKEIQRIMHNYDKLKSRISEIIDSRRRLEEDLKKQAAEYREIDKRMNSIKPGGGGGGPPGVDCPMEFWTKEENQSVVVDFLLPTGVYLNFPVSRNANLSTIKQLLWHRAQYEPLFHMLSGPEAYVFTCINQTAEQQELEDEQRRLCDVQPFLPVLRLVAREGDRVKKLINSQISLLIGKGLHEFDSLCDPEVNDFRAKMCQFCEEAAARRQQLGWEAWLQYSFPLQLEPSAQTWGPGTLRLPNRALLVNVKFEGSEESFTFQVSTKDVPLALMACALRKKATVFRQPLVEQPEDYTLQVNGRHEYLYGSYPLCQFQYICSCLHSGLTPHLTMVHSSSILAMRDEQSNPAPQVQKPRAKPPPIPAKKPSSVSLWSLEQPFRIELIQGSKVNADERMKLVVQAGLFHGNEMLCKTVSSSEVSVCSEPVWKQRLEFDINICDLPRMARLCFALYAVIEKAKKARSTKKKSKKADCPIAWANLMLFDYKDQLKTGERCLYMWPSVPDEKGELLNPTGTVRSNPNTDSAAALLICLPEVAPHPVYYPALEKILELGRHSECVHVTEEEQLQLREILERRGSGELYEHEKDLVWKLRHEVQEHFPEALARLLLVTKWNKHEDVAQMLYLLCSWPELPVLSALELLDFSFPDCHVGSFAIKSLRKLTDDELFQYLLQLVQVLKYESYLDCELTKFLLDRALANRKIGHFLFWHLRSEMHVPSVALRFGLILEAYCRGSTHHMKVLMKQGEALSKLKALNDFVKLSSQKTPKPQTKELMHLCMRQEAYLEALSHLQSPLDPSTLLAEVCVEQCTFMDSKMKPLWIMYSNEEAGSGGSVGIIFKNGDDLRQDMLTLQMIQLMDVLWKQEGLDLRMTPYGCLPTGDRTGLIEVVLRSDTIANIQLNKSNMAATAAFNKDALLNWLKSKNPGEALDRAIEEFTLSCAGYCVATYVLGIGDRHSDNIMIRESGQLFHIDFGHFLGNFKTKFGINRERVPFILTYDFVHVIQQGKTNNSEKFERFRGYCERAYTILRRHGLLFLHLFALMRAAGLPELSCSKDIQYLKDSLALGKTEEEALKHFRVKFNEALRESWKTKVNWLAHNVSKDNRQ
# How it was run: as §1
# PI3K gamma = biological target: T4, PI3K gamma (Homo sapiens, UniProt P48736); assay: PI3 kinase assay (Kinase-Glo luminescence), PI3K gamma; type: biochemical; settings: Enzymatic Data; read-out: PI3K gamma IC50 [umol]
# T4 construct: PI3Kγ BV-950 p110g(D144aa)-C-Term His Tag; His tag (C); made in house; host or cells: construct from the Roger Williams lab (MRC LMB) in pVL1393; baculovirus; Tn5 (Trichoplusia ni) or TiniPro insect cells
# T4 sequence (P48736 144-1102 limits assumed): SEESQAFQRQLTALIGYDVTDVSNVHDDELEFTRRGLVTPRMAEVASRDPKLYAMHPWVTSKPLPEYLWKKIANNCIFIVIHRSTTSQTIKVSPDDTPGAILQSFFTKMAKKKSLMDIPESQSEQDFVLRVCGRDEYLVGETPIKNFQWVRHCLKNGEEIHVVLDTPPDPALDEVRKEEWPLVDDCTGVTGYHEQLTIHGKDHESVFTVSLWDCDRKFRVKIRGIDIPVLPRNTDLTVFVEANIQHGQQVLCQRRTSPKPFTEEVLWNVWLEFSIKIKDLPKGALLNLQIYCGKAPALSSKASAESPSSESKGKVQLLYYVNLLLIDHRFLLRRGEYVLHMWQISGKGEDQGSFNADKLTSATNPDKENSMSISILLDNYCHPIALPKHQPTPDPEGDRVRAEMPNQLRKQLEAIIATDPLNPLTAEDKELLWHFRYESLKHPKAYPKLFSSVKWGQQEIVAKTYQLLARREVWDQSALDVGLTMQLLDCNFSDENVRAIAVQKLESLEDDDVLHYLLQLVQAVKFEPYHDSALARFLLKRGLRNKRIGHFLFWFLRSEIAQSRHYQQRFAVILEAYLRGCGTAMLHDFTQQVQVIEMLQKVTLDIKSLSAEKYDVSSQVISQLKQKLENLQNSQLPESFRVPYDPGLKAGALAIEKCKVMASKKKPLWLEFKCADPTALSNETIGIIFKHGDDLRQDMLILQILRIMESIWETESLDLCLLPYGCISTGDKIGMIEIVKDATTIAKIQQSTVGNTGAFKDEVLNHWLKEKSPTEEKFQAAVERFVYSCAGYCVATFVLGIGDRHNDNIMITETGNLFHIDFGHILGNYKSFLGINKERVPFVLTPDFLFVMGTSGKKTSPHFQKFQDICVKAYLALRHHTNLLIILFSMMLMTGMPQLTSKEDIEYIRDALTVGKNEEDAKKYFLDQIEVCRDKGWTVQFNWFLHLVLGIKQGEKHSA
# How it was run: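 Percent inhibition at eight concentrations (typically 10 to 0.003 […]) fitted to a four-parameter logistic model to give IC50. Reaction initiated with ATP; final ATP 1 μM and phosphatidylinositol 10 μg/mL; ATP consumption read by Kinase-Glo luminescence.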
smiles,measurement,setting,value
"COC(=O)NC1(COc2ccc(-c3ccc4ncc(-c5cnc(N)c(C(F)(F)F)c5)n4n3)cc2)COC1 [Example 148, (3-{4-[3-(6-Amino-5-trifluoromethyl-pyridin-3-yl)-imidazo[1,2-b]pyridazin-6-yl]-phenoxymethyl}-oxetan-3-yl)-carbamic acid methyl ester]",IC50,PI3K alfa,96 nM
same,IC50,PI3K beta,3290 nM
same,IC50,PI3K delta,369 nM
same,IC50,PI3K gamma,810 nM
same,melting point,,220 to 222 °C
"COc1ccc(-c2cnn3ccc(-c4ccc(OCCCNC(=O)OC(C)(C)C)c(OC)c4)nc23)cc1OC [Example 25, (3-{4-[3-(3,4-Dimethoxy-phenyl)-pyrazolo[1,5-a]pyrimidin-5-yl]-2-methoxy-phenoxy}-propyl)-carbamic acid tert-butyl ester]",melting point,,131 to 133 °C
"Nc1ncc(-c2cnc3ccc(-c4ccc(OCC5(CNC(=O)C6CC6)COC5)cc4)nn23)cc1C(F)(F)F [Example 172, Cyclopropanecarboxylic acid (3-{4-[3-(6-amino-5-trifluoromethyl-pyridin-3-yl)-imidazo[1,2-b]pyridazin-6-yl]-phenoxymethyl}-oxetan-3-ylmethyl)-amide]",IC50,PI3K alfa,48 nM
same,IC50,PI3K beta,1050 nM
same,IC50,PI3K delta,139 nM
same,IC50,PI3K gamma,461 nM
same,melting point,,223 to 225 °C
CC(C)C(=O)NCC1(COc2ccc(-c3ccc4ncc(-c5cnc(N)c(C(F)(F)F)c5)n4n3)cc2)COC1 [Example 167],IC50,PI3K alfa,35 nM
same,IC50,PI3K beta,1480 nM
same,IC50,PI3K delta,231 nM
same,IC50,PI3K gamma,2040 nM
same,melting point,,205 to 207 °C
"Nc1ncc(-c2ccc3ncc(-c4ccc(CN5CCC(C(=O)N6CCCCCC6)CC5)cc4)n3n2)cc1C(F)(F)F [Example 182, (1-{4-[6-(6-Amino-5-trifluoromethyl-pyridin-3-yl)-imidazo[1,2-b]pyridazin-3-yl]-benzyl}-piperidin-4-yl)-azepan-1-yl-methanone]",melting point,,249 to 252 °C
"Nc1ncc(-c2ccc3ncc(-c4ccc(CN5CCC(C(=O)N6CCCCC6)CC5)cc4)n3n2)cc1C(F)(F)F [Example 183, (1-{4-[6-(6-Amino-5-trifluoromethyl-pyridin-3-yl)-imidazo[1,2-b]pyridazin-3-yl]-benzyl}-piperidin-4-yl)-piperidin-1-yl-methanone]",melting point,,263 to 266 °C
"COc1cc(-c2cnc3ccc(-c4cnc(N)c(C(F)(F)F)c4)nn23)ccc1C(=O)N1CCN(CCN2CCOCC2)CC1 [Example 118, {4-[6-(6-Amino-5-trifluoro-methyl-pyridin-3-yl)-imidazo [1,2-b]pyridazin-3-yl]-2-methoxy-phenyl}-[4-(2-morpholin-4-yl-ethyl)-piperazin-1-yl]-methanone]",IC50,PI3K alfa,8 nM
same,IC50,PI3K beta,178 nM
same,IC50,PI3K delta,6 nM
same,IC50,PI3K gamma,405 nM
"COc1cc(-c2cnc3ccc(-c4cnc(N)c(C(F)(F)F)c4)nn23)ccc1OCCCN [Example 37, 5-{3-[4-(3-Amino-propoxy)-3-methoxy-phenyl]-imidazo[1,2-b]pyridazin-6-yl}-3-trifluoro-methyl-pyridin-2-ylamine]",IC50,PI3K alfa,110 nM
same,IC50,PI3K beta,54 nM
same,IC50,PI3K delta,72 nM
same,IC50,PI3K gamma,1120 nM
"COc1ccc(-c2ccc3ncc(-c4ccc(NS(C)(=O)=O)cc4)n3n2)cc1OC [Example 44, N-{4-[6-(3,4-Dimethoxy-phenyl)-imidazo [1,2-b]pyridazin-3-yl]-phenyl}-methane-sulfonamide]",IC50,PI3K alfa,297 nM
same,IC50,PI3K beta,2220 nM
same,IC50,PI3K delta,336 nM
same,IC50,PI3K gamma,3500 nM
"NCCCOc1ccc(-c2cnc3ccc(-c4cnc(N)c(C(F)(F)F)c4)nn23)cc1 [Example 141, 5-{3-[4-(3-Amino-propoxy)-phenyl]-imidazo [1,2-b]pyridazin-6-yl}-3-trifluoro-methyl-pyridin-2-ylamine]",IC50,PI3K alfa,151 nM
same,IC50,PI3K beta,134 nM
same,IC50,PI3K delta,201 nM
same,IC50,PI3K gamma,7250 nM
"COc1cc(-c2ccc3ncc(-c4cnc(N)c(C(F)(F)F)c4)n3n2)ccc1OCCN1CCCC1=O [Example 103, 1-(2-{4-[3-(6-Amino-5-trifluoro-methyl-pyridin-3-yl)-imidazo [1,2-b]pyridazin-6-yl]-2-methoxy-phenoxy}-ethyl)-pyrrolidin-2-one]",IC50,PI3K alfa,4 nM
same,IC50,PI3K beta,134 nM
same,IC50,PI3K delta,11 nM
same,IC50,PI3K gamma,573 nM
"Nc1ncc(-c2ccc3ncc(-c4ccc(C(=O)O)c(F)c4)n3n2)cc1C(F)(F)F [Example 95, 4-[6-(6-Amino-5-trifluoro-methyl-pyridin-3-yl)-imidazo [1,2-b]pyridazin-3-yl]-2-fluoro-benzoic acid]",IC50,PI3K alfa,6 nM
same,IC50,PI3K beta,59 nM
same,IC50,PI3K delta,20 nM
same,IC50,PI3K gamma,928 nM
"CC(C)(C)OC(=O)NCCn1cc(-c2ccc3ncc(-c4cnc(N)c(C(F)(F)F)c4)n3n2)ccc1=O [Example 69, (2-{5-[3-(6-Amino-5-trifluoro-methyl-pyridin-3-yl)-imidazo [1,2-b]pyridazin-6-yl]-2-oxo-2H-pyridin-1-yl}-ethyl)-carbamic acid tert-butyl ester]",IC50,PI3K alfa,50 nM
same,IC50,PI3K beta,1430 nM
same,IC50,PI3K delta,156 nM
same,IC50,PI3K gamma,2430 nM
"O=C1CCCN1CCOc1ccc(-c2ccc3ncc(-c4cnc5[nH]ccc5c4)n3n2)cc1 [Example 98, 1-(2-{4-[3-(1H-Pyrrolo[2,3-b]pyridin-5-yl)-imidazo [1,2-b]pyridazin-6-yl]-phenoxy}-ethyl)-pyrrolidin-2-one]",IC50,PI3K alfa,28 nM
same,IC50,PI3K beta,2940 nM
same,IC50,PI3K delta,120 nM
same,IC50,PI3K gamma,2210 nM
"Nc1ncc(-c2ccc3ncc(-c4ccc(C(=O)N5CCN(CCN6CCOCC6)CC5)cc4)n3n2)cc1C(F)(F)F [Example 128, {4-[6-(6-Amino-5-trifluoro-methyl-pyridin-3-yl)-imidazo [1,2-b]pyridazin-3-yl]-phenyl}-[4-(2-morpholin-4-yl-ethyl)-piperazin-1-yl]-methanone]",IC50,PI3K alfa,12 nM
same,IC50,PI3K beta,518 nM
same,IC50,PI3K delta,38 nM
same,IC50,PI3K gamma,938 nM
"Nc1ncc(-c2ccc3ncc(-c4cnc5c(ccn5CCN5CCOCC5)c4)n3n2)cc1C(F)(F)F [Example 126, 5-{3-[1-(2-Morpholin-4-yl-ethyl)-1H-pyrrolo [2,3-b]pyridin-5-yl]-imidazo [1,2-b]pyridazin-6-yl}-3-trifluoro-methyl-pyridin-2-ylamine]",IC50,PI3K alfa,66 nM
same,IC50,PI3K beta,139 nM
same,IC50,PI3K delta,22 nM
same,IC50,PI3K gamma,1030 nM
"COc1ccc(-c2ccc3ncc(-c4cnc5[nH]ccc5c4)n3n2)cc1F [Example 49, 6-(3-Fluoro-4-methoxy-phenyl)-3-(1H-pyrrolo [2,3-b]pyridin-5-yl)-imidazo [1,2-b] pyridazine]",IC50,PI3K alfa,1620 nM
same,IC50,PI3K beta,> 9100 nM
same,IC50,PI3K delta,4810 nM
same,IC50,PI3K gamma,6040 nM
"Nc1ncc(-c2ccc3ncc(-c4ccc(C(=O)N5CCN(Cc6ccc(F)cc6)CC5)c(F)c4)n3n2)cc1C(F)(F)F [Example 114, {4-[6-(6-Amino-5-trifluoromethyl-pyridin-3-yl)-imidazo [1,2-b]pyridazin-3-yl]-2-fluoro-phenyl}-[4-(4-fluoro-benzyl)-piperazin-1-yl]-methanone]",IC50,PI3K alfa,140 nM
same,IC50,PI3K beta,4070 nM
same,IC50,PI3K delta,829 nM
same,IC50,PI3K gamma,1440 nM
"Nc1ncc(-c2ccc3ncc(-c4ccc(C(=O)NCCN5CCOCC5)c(F)c4)n3n2)cc1C(F)(F)F [Example 99, 4-[6-(6-Amino-5-trifluoro-methyl-pyridin-3-yl)-imidazo [1,2-b]pyridazin-3-yl]-2-fluoro-N-(2-morpholin-4-yl-ethyl)-benzamide]",IC50,PI3K alfa,9 nM
same,IC50,PI3K beta,82 nM
same,IC50,PI3K delta,15 nM
same,IC50,PI3K gamma,584 nM
"COc1cc(-c2cnc3ccc(-c4cnc(N)c(C(F)(F)F)c4)nn23)c(F)cc1C(=O)NCCN1CCS(=O)(=O)CC1 [Example 160, 4-[6-(6-Amino-5-trifluoro-methyl-pyridin-3-yl)-imidazo [1,2-b]pyridazin-3-yl]-N-[2-(1,1-dioxo-1lambda*6*- thio-morpholin-4-yl)-ethyl]-5-fluoro-2-methoxy-benzamide]",IC50,PI3K alfa,22 nM
same,IC50,PI3K beta,144 nM
same,IC50,PI3K delta,39 nM
same,IC50,PI3K gamma,1260 nM
"COc1cccc(-c2ccc3ncc(-c4cnc(N)c(C(F)(F)F)c4)n3n2)c1 [Example 77, 5-[6-(3-Methoxy-phenyl)-imidazo [1,2-b]pyridazin-3-yl]-3-trifluoro-methyl-pyridin-2-ylamine]",IC50,PI3K alfa,190 nM
same,IC50,PI3K beta,1120 nM
same,IC50,PI3K delta,623 nM
same,IC50,PI3K gamma,2560 nM
